# Reference: US7928233B2, “Spiroindolinone pyridine derivatives” (Hoffmann-La Roche Inc., priority 2009, dated 2011)
# Biological target: interaction between p53 and MDM2 proteins (recombinant GST-tagged MDM2 / p53 peptide) (Homo sapiens, UniProt Q00987)
# Experiment: HTRF assay of inhibition of p53-MDM2 interaction
# Assay type: binding
# Conditions: 0.02% BSA; HTRF GST-MDM2 / biotinylated p53 peptide
# Experimental: The ability of the compounds to inhibit the interaction between p53 and MDM2 proteins was measured by an HTRF (homogeneous time-resolved fluorescence) assay in which recombinant GST-tagged MDM2 binds to a peptide that resembles the MDM2-interacting region of p53 (Lane et al.). Binding of GST-MDM2 protein and p53-peptide (biotinylated on its N-terminal end) is registered by the FRET (fluorescence resonance energy transfer) between Europium (Eu)-labeled anti-GST antibody and streptavidin-conjugated Allophycocyanin (APC).
# Test is performed in black flat-bottom 384-well plates (Costar) in a total volume of 40 uL containing: 90 nM biotinylate peptide, 160 ng/ml GST-MDM2, 20 nM streptavidin-APC (PerkinElmerWallac), 2 nM Eu-labeled anti-GST-antibody (PerkinElmerWallac), 0.2% bovine serum albumin (BSA), 1 mM dithiothreitol (DTT) and 20 mM Tris-borate saline (TBS) buffer as follows: Add 10 uL of GST-MDM2 (640 ng/ml working solution) in reaction buffer to each well. Add 10 uL diluted compounds (1:5 dilution in reaction buffer) to each well, mix by shaking Add 20 uL biotinylated p53 peptide (180 nM working solution) in reaction buffer to each well and mix on shaker. Incubate at 37° C. for 1 h. Add 20 uL streptavidin-APC and Eu-anti-GST antibody mixture (6 nM Eu-anti-GST and 60 nM streptavidin-APC working solution) in TBS buffer with 0.2% BSA, shake at room temperature for 30 minutes and read using a TRF-capable plate reader at 665 and 615 nm (Victor 5, Perkin ElmerWallac). If not specified, the reagents were purchased from Sigma Chemical Co.
# interaction between p53 and MDM2 proteins (recombinant GST-tagged MDM2 / p53 peptide), sequence (Q00987 whole entry): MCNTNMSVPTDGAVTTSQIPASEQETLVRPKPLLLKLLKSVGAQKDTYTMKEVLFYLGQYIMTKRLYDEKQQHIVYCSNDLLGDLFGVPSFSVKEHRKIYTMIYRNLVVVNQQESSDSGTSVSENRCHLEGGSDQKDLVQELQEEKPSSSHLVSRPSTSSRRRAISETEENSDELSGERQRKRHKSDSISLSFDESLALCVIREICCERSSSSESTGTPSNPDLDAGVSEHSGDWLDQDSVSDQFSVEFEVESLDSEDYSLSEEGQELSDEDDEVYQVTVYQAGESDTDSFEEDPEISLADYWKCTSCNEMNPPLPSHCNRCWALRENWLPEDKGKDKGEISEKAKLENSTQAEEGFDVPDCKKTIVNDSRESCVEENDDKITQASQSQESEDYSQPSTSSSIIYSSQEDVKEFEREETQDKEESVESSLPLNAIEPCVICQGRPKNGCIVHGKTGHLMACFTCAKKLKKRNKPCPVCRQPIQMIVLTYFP
row,IC50 [nM],SMILES
1,145,"Cc1ccc(F)cc1[C@@H]1NC(=O)C[C@H](c2cc(Cl)cnc2OC(C)(C)C(=O)O)[C@@]12C(=O)Nc1cc(Cl)ccc12 (racemic) [Example 8, racemic (2′S, 3S, 4′R)-6-chloro-4′-[5-chloro-2-(1-hydroxycarbonyl-1-methyl-ethoxy)-pyridin-3-yl]-2′-(5-fluoro-2-methyl-phenyl) spiro[3H-indole-3,3′-piperidine]-2,6′(1H)-dione]"
2,108,"Cc1ccc(F)cc1[C@@H]1NC(=O)C[C@H](c2cc(Cl)cnc2OC(C)(C)C(=O)O)[C@@]12C(=O)Nc1cc(Cl)ccc12 [Example 9, chiral (2′S, 3S, 4′R)-6-chloro-4′-[5-chloro-2-(1-hydroxycarbonyl-1-methyl-ethoxy)-pyridin-3-yl]-2′-(5-fluoro-2-methyl-phenyl) spiro[3H-indole-3,3′-piperidine]-2,6′(1H)-dione]"
3,135,"Cc1ccc(F)cc1[C@@H]1NC(=O)C[C@H](c2cc(Cl)cnc2OC(C)(C)C(=O)NS(C)(=O)=O)[C@@]12C(=O)Nc1cc(Cl)ccc12 [Example 11, chiral (2′S, 3S, 4′R)-4′-[5-chloro-2-(2-methanesulfonylamino-1,1-methyl-2-oxo-ethoxy)-pyridin-3-yl]-6-chloro-2′-(5-fluoro-2-methyl-phenyl) spiro[3H-indole-3,3′-piperidine]-2,6′(1H)-dione]"
4,56,"Cc1ccc(Cl)cc1[C@@H]1NC(=O)C[C@H](c2cc(Cl)cnc2OC(C)(C)C(=O)O)[C@@]12C(=O)Nc1cc(Cl)ccc12 [Example 15, chiral (2′S, 3S, 4′R)-6-chloro-4′-[5-chloro-2-(1-hydroxycarbonyl-1-methyl-ethoxy)-pyridin-3-yl]-2′-(5-chloro-2-methyl-phenyl) spiro[3H-indole-3,3′-piperidine]-2,6′(1H)-dione]"
